target: T1, Human Aryl Hydrocarbon Receptor (AhR) (Homo sapiens, UniProt P35869); experiment: AHR antagonist reporter assay in human cell line (INDIGO AhR Reporter Assay System, kynurenic acid activated); type: cell-based; details: 200 μM kynurenic acid, 24 hours, luciferase; read-out: AhR Reporter Assay KA Antagonist Mode: IC50
T1 construct: purchased INDIGO Bioscience #1B06001-32; host or cells: AhR Reporter Cell (kit's proprietary reporter cells)
T1 sequence (P35869 11-848): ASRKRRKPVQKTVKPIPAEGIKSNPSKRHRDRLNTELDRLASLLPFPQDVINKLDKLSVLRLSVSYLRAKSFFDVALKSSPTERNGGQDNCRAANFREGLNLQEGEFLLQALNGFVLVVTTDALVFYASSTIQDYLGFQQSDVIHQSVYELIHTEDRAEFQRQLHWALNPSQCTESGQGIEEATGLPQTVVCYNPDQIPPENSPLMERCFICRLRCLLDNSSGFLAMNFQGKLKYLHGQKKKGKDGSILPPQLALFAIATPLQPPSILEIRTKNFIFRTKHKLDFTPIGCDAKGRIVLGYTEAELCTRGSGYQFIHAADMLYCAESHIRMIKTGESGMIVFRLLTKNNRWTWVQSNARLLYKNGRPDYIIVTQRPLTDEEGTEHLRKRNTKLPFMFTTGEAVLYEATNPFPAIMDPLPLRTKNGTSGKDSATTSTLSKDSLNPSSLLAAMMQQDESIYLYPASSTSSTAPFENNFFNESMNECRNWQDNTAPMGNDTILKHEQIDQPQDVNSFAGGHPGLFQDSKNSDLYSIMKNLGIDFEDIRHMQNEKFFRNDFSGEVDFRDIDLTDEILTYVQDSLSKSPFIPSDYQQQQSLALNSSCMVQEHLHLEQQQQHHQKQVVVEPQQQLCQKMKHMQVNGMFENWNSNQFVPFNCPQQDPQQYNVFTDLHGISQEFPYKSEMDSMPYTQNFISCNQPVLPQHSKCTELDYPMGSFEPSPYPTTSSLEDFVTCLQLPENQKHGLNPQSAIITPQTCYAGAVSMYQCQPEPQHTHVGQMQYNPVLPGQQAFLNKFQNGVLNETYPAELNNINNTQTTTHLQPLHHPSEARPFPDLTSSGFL
Procedure: The AhR reporter assay was performed following the protocol of the Human Aryl Hydrocarbon Receptor (AhR) Reporter Assay System (INDIGO Bioscience, #1B06001-32). AhR Reporter Cell was thawed and pre-incubated in Cell Recovery Medium (CRM) for 6 hours. The media was then removed and the cells were incubated with Compound Screening Medium (CSM) supplemented with 200 μM kynurenic acid for 24 hours in the absence (negative control) or presence of increasing concentrations of test compounds (typical dilution: […], 3.2 nM, 16 nM, 80 nM, 400 nM, 2 μM, 10 μM in duplicates). For positive inhibition control, cells activated with 200 μM kynurenic acid were incubated in the presence of literature AHR antagonists; alternatively un-activated cells were used as positive inhibition control. Following 24 hours incubation, the media was removed and Luciferase Detection Reagent (LDR) added. The firefly luciferase activity was quantified using a plate reader. Results were normalized by positive and negative controls.

IC50, < 100 nM:
COC[C@H](C)NC(=O)c1cc(-c2ccc(OC(F)(F)F)cc2)nn(-c2cnn(C)c2)c1=O [Compound 69]
COC[C@H](C)NC(=O)c1cc(-c2cnc(C(C)C)s2)nn(-c2cnn(C)c2)c1=O [Compound 88]
CNC(=O)C(C)(C)NC(=O)c1cc(-c2ccc(Cl)cc2)nn(-c2cccc(F)c2)c1=O [Compound 96]
COC[C@H](C)NC(=O)c1cc(-c2cccc(Cl)c2)nn(-c2cnn(C)c2)c1=O [Compound 104]
COC[C@H](C)NC(=O)c1cc(N2C[C@H]3CCCC[C@H]3C2)nn(-c2cnn(C)c2)c1=O [Compound 125]
COC[C@H](C)NC(=O)c1cc(-n2ccc(-c3ccc(Cl)cc3)n2)nn(-c2cnn(C)c2)c1=O [Compound 142]
COC[C@H](C)NC(=O)c1cc(C2=CCC(C)CC2)nn(-c2cnn(C)c2)c1=O (stereo partly shown) [Compound 149]
C[C@@H](CO)NC(=O)c1cc(-n2ccc(-c3ccc(Cl)cc3)n2)nn(-c2cnn(C)c2)c1=O [Compound 162]

IC50, > 400 nM:
COC[C@H](C)NC(=O)c1cc(-c2ccc(N(C)C)nc2)nn(-c2cnn(C)c2)c1=O [Compound 75]
COC[C@H](C)NC(=O)c1cc(-c2cnc(C3CC3)s2)nn(-c2cnn(C)c2)c1=O [Compound 77]
COC[C@H](C)NC(=O)c1cc(-c2cnc(C)s2)nn(-c2cnn(C)c2)c1=O [Compound 79]
COC[C@H](C)NC(=O)c1cc(-c2cnc(C(F)(F)F)s2)nn(-c2cnn(C)c2)c1=O [Compound 80]
COC[C@H](C)NC(=O)c1cc(-c2ccc(C#N)cc2)nn(-c2cnn(C)c2)c1=O [Compound 83]
COC[C@H](C)NC(=O)c1cc(-c2ccc(Cl)cc2F)nn(-c2cnn(C)c2)c1=O [Compound 85]
COC[C@H](C)NC(=O)c1cc(-c2cnc(C(C)=O)s2)nn(-c2cnn(C)c2)c1=O [Compound 87]
COC[C@H](C)NC(=O)c1cc(-c2cnc(N)nc2)nn(-c2cnn(C)c2)c1=O [Compound 91]
COC[C@H](C)NC(=O)c1cc(-c2ccc(F)c(Cl)c2)nn(-c2cnn(C)c2)c1=O [Compound 102]
COC[C@H](C)NC(=O)c1cc(-c2ccc(F)c(F)c2)nn(-c2cnn(C)c2)c1=O [Compound 103]
COC[C@H](C)NC(=O)c1cc(-c2cccc(F)c2)nn(-c2cnn(C)c2)c1=O [Compound 105]
COC[C@H](C)NC(=O)c1cc(-c2ccc(F)cc2Cl)nn(-c2cnn(C)c2)c1=O [Compound 107]
COC[C@H](C)NC(=O)c1cc(-c2ccccc2F)nn(-c2cnn(C)c2)c1=O [Compound 108]
COC[C@H](C)NC(=O)c1cc(-c2ccc(F)cc2F)nn(-c2cnn(C)c2)c1=O [Compound 109]
COC[C@H](C)NC(=O)c1cc(N2CC3(CCCC3)C2)nn(-c2cnn(C)c2)c1=O [Compound 110]
COC[C@H](C)NC(=O)c1cc(-c2ccc3c(c2)CCCO3)nn(-c2cnn(C)c2)c1=O [Compound 111]
COC[C@H](C)NC(=O)c1cc(N2CCC(C)CC2)nn(-c2cnn(C)c2)c1=O [Compound 114]
COC[C@H](C)NC(=O)c1cc(C2CCCCC2)nn(-c2cnn(C)c2)c1=O [Compound 115]
COC[C@H](C)NC(=O)c1cc(N2CCC3(CCCC3)CC2)nn(-c2cnn(C)c2)c1=O [Compound 116]
COC[C@H](C)NC(=O)c1cc(N2CC3(CCCCC3)C2)nn(-c2cnn(C)c2)c1=O [Compound 117]
COC[C@H](C)NC(=O)c1cc(-c2ccccc2Cl)nn(-c2cnn(C)c2)c1=O [Compound 118]
COC[C@H](C)NC(=O)c1cc(C2CCC(C)(C)CC2)nn(-c2cnn(C)c2)c1=O [Compound 119]
COC[C@H](C)NC(=O)c1cc(-c2cc3cccnc3cc2F)nn(-c2cnn(C)c2)c1=O [Compound 121]
COC[C@H](C)NC(=O)c1cc(-c2ccc3ccc(OC)nc3c2)nn(-c2cnn(C)c2)c1=O [Compound 122]
COC[C@H](C)NC(=O)c1cc(-c2ccc3oc(C)nc3c2)nn(-c2cnn(C)c2)c1=O [Compound 124]
COC[C@H](C)NC(=O)c1cc(-c2ccc3ncccc3c2)nn(-c2cnn(C)c2)c1=O [Compound 126]
COC[C@H](C)NC(=O)c1cc(N2CCC(C)(C)CC2)nn(-c2cnn(C)c2)c1=O [Compound 127]
COC[C@H](C)NC(=O)c1cc(-c2ccc3c(c2)OCCO3)nn(-c2cnn(C)c2)c1=O [Compound 128]
COC[C@H](C)NC(=O)c1cc(-c2ccc3c(C)ccnc3c2)nn(-c2cnn(C)c2)c1=O [Compound 129]
COC[C@H](C)NC(=O)c1cc(-c2ccc3nc(N)ccc3c2)nn(-c2cnn(C)c2)c1=O [Compound 131]
COC[C@H](C)NC(=O)c1cc(-c2ccc3sc(C)nc3c2)nn(-c2cnn(C)c2)c1=O [Compound 132]
COC[C@H](C)NC(=O)c1cc(-c2ccc3cnccc3c2)nn(-c2cnn(C)c2)c1=O [Compound 133]
COC[C@H](C)NC(=O)c1cc(N2C(=O)C(C)(C)c3ccccc32)nn(-c2cnn(C)c2)c1=O [Compound 134]
COC[C@H](C)NC(=O)c1cc(-n2cc(C)c(C)n2)nn(-c2cnn(C)c2)c1=O [Compound 135]
COC[C@H](C)NC(=O)c1cc(-n2cc(C(F)(F)F)cn2)nn(-c2cnn(C)c2)c1=O [Compound 136]
COC[C@H](C)NC(=O)c1cc(-n2ccc(C3CC3)n2)nn(-c2cnn(C)c2)c1=O [Compound 137]
COC[C@H](C)NC(=O)c1cc(-n2ccc(C(F)(F)F)n2)nn(-c2cnn(C)c2)c1=O [Compound 138]
COC[C@H](C)NC(=O)c1cc(-c2ccc3c(c2)OCO3)nn(-c2cnn(C)c2)c1=O [Compound 140]
COC[C@H](C)NC(=O)c1cc(-c2ccc3c(c2)N(C)CC3)nn(-c2cnn(C)c2)c1=O [Compound 141]
COC[C@H](C)NC(=O)c1cc(-n2nc(C(F)(F)F)cc2C)nn(-c2cnn(C)c2)c1=O [Compound 143]
COC[C@H](C)NC(=O)c1cc(-c2cc(F)c3ncccc3c2F)nn(-c2cnn(C)c2)c1=O [Compound 144]
COC[C@H](C)NC(=O)c1cc(N2CCC3(CCCCC3)C2)nn(-c2cnn(C)c2)c1=O [Compound 145]
COC[C@H](C)NC(=O)c1cc(-n2ccc3ccccc32)nn(-c2cnn(C)c2)c1=O [Compound 151]
COC[C@H](C)NC(=O)c1cc(C2CCC(C)CC2)nn(-c2cnn(C)c2)c1=O (stereo partly shown) [Compound 152]
COC[C@H](C)NC(=O)c1cc(-c2cc3c(O)ncnc3cc2F)nn(-c2cnn(C)c2)c1=O [Compound 154]
COC[C@H](C)NC(=O)c1cc(-n2nnc3ccccc32)nn(-c2cnn(C)c2)c1=O [Compound 158]
CN(C)C(=O)C(C)(C)NC(=O)c1cc(-c2ccc(C(F)(F)F)nc2)nn(-c2cnn(C)c2)c1=O [Compound 166]
C[C@H](NC(=O)c1cc(-c2ccc(C(=O)N(C)C)cc2)nn(-c2cccc(F)c2)c1=O)C(=O)N(C)C [Compound 178]

IC50, 100 to 400 nM:
COC[C@H](C)NC(=O)c1cc(-c2ccc(OC)cc2)nn(-c2cnn(C)c2)c1=O [Compound 74]
COC[C@H](C)NC(=O)c1cc(-c2cnc(N(C)C)nc2)nn(-c2cnn(C)c2)c1=O [Compound 89]
COC[C@H](C)NC(=O)c1cc(-c2ccc3cccnc3c2F)nn(-c2cnn(C)c2)c1=O [Compound 130]
COC[C@H](C)NC(=O)c1cc(-n2nc3ccccc3n2)nn(-c2cnn(C)c2)c1=O [Compound 159]
CNC(=O)C(C)(C)NC(=O)c1cc(-c2ccc(OC(F)(F)F)cc2)nn(-c2cnn(C)c2)c1=O [Compound 174]
